Assay results from US8029920B2, “1,3,5-tris(diarylamino)benzenes and use thereof” (Bando Chemical Industries, Ltd, priority 2006, dated 2011).

Assays:
[1] = Differential scanning calorimetry (DSC), glass transition temperature; format: physicochemical
Excerpt: Differential Scanning Calorimetry (DSC):
(§1) The compound (3) is excellent in heat resistance.
The compound is excellent in heat resistance.

[2] = Thermogravimetric measurement/differential thermal analysis (TG/DTA); format: physicochemical
Method: Thermogravimetric Measurement/Differential Thermal Analysis (TG/DTA):
as §1
(§2) The residual on the vacuum evaporation boat before and after vacuum evaporation of the compound (3) was analyzed by high performance liquid chromatography, showing that the residual on the vacuum evaporation boat before and after vacuum evaporation was in fact found to have a purity of 100.00%.
(§3) In contrast, the compound (2) starts decomposition at a temperature of 412° C. as shown by the TG/DTA measurement. Since the temperature is close to the above-mentioned vacuum evaporation temperature (415° C.), it is expected that the compound (2) is accompanied by thermal decomposition at the vacuum evaporation temperature.
The compound (4) is excellent in heat resistance.

[3] = Solubility test in heated toluene; format: physicochemical
Method: 500 mL of heated toluene was needed to dissolve 1 g of the compound (2), but 50 mL of heated toluene was needed to dissolve 1 g of the compound (3).
500 mL of heated toluene was needed to dissolve 1 g of the compound (2), but 50 mL of heated toluene was needed to dissolve 1 g of the compound (4).

[4] = Vacuum evaporation temperature test with HPLC of boat residual; format: physicochemical; settings: for purity of residual on the vacuum evaporation boat after vacuum evaporation / purity of residual on the vacuum evaporation boat before vacuum evaporation: HPLC; for purity of residual on the vacuum evaporation boat after vacuum evaporation: after vacuum evaporation (thermal stability); for temperature needed to obtain an evaporation rate of 5 Å/second: vacuum evaporation
Method: (Vacuum Evaporation Temperature Test)
as §2, §3

[5] = Cyclic voltammetry (CV); format: physicochemical; settings: for stability in repetition: repeated oxidation-reduction
[6] = prior art, JP-A-2004-155754; cited from earlier work

SMILES | glass transition temperature (Tg) [1] | temperature at which decomposition starts [2] [°C] | heated toluene needed to dissolve 1 g of the compound [3] [mL] | purity of residual on the vacuum evaporation boat after vacuum evaporation [4] [%] | purity of residual on the vacuum evaporation boat before vacuum evaporation [4] [%] | temperature needed to obtain an evaporation rate of 5 Å/second [4] [°C] | decomposition temperature [2] [°C] | oxidation potential [5] | reversibility of oxidation-reduction process [5] | stability in repetition [5] | glass transition temperature [6] [°C]
Cc1ccc(-c2ccc(N(c3ccc(-c4ccc(C)cc4)cc3)c3cc(N(c4ccc(-c5ccc(C)cc5)cc4)c4ccc(-c5ccc(C)cc5)cc4)cc(N(c4ccc(-c5ccc(C)cc5)cc4)c4ccc(-c5ccc(C)cc5)cc4)c3)cc2)cc1 [compound (2), 1,3,5-tris(N,N-bis(4′-methyl-4-biphenylyl)amino)benzene, reference compound] | no glass transition temperature | 412 | 500 | 95.87 | 99.03 | 415 | – | – | – | – | –
Cc1ccc(N(c2ccc(C)cc2)c2cc(N(c3ccc(-c4ccccc4)cc3)c3ccc(-c4ccccc4)cc3)cc(N(c3ccc(-c4ccccc4)cc3)c3ccc(-c4ccccc4)cc3)c2)cc1 [compound (4), N,N,N′,N′-tetrakis(4-biphenylyl)-N″,N″-bis(4-methylphenyl)benzene-1,3,5-triamine] | 133 °C | 498 | 50 | 99.64 | 99.30 | 340 | 498 | 0.54 V (vs. Ag/Ag^+) | excellent | good | –
Cc1ccc(N(c2ccc(-c3ccccc3)cc2)c2cc(N(c3ccc(C)cc3)c3ccc(-c4ccccc4)cc3)cc(N(c3ccc(C)cc3)c3ccc(-c4ccccc4)cc3)c2)cc1 [p-MTPBAB, 1,3,5-tris(N-(p-methylphenyl)-N-(4-biphenylyl)amino)benzene] | – | – | – | – | – | – | – | – | – | – | 98
Cc1ccc(N(c2cc(N(c3ccc(C)cc3)c3cccc4ccccc34)cc(N(c3ccc(C)cc3)c3cccc4ccccc34)c2)c2cccc3ccccc23)cc1 [p-MTPNAB, 1,3,5-tris(N-(p-methylphenyl)-N-(1-naphthyl))-amino benzene] | – | – | – | – | – | – | – | – | – | – | 87

Second part, led by results:

glass transition temperature (Tg) [1] | temperature at which decomposition starts [2] [°C] | heated toluene needed to dissolve 1 g of the compound [3] [mL] | purity of residual on the vacuum evaporation boat after vacuum evaporation [4] [%] | purity of residual on the vacuum evaporation boat before vacuum evaporation [4] [%] | temperature needed to obtain an evaporation rate of 5 Å/second [4] [°C] | decomposition temperature [2] [°C] | oxidation potential [5] | reversibility of oxidation-reduction process [5] | stability in repetition [5] | SMILES | glass transition temperature [6] [°C]
103 °C | – | – | – | – | – | – | – | – | – | Cc1ccc(-c2ccc(N(c3ccc(C)cc3)c3cc(N(c4ccc(C)cc4)c4ccc(-c5ccc(C)cc5)cc4)cc(N(c4ccc(C)cc4)c4ccc(-c5ccc(C)cc5)cc4)c3)cc2)cc1 [compound (1), 1,3,5-tris(N-(4′-methyl-4-biphenylyl)-N-(4-methylphenyl)amino)benzene, reference compound] | –
179 °C | 430 | 50 | 100.00 | 100.00 | 350 | 478 | 0.52 V (vs. Ag/Ag^+) | excellent | good | Cc1ccc(-c2ccc(N(c3ccc(-c4ccc(C)cc4)cc3)c3cc(N(c4ccc(C)cc4)c4ccc(C)cc4)cc(N(c4ccc(-c5ccc(C)cc5)cc4)c4ccc(-c5ccc(C)cc5)cc4)c3)cc2)cc1 [compound (3), N,N,N′,N′-tetrakis(4′-methyl-4-biphenylyl)-N″,N″-bis(4-methylphenyl)benzene-1,3,5-triamine] | –
